Measurements from US20090312373A1, “METHODS FOR THE TREATMENT OF CANCER USING PIPERLONGUMINE AND PIPERLONGUMINE ANALOGS” (The General Hospital Corporation, priority 2008, published 2009).

Legend:
p53 = assay: Western blot of p53 and p53 target expression in human cancer cells; type: cell-based
Source text: Thus, piperlongumine is a p53 activator as well as an activator for proapoptotic targets.

Toxicity limit in mice = type: in vivo, mouse
Method: To avoid toxicity, piperlongumine should be used at less than 2.5 mg/kg in mice. The skilled person will know how to formulate the compounds of the invention in accordance with the solubility by selection of appropriate carriers, solubilizers, etc.

[1] = test system: patient-derived osteocarcoma samples; assay: Histoculture Drug Response Assay (HDRA), osteosarcoma; type: cell-based, human
Source text: (§1) Piperlongumine (SP2007) was compared to a variety of known anti-cancer agents in a Histoculture Drug Response Assay (HDRA). HDRA is an assay that provides a reliable approach to determine the profile of in vivo chemo-sensitivity in cancer patients. The assay allows for a three-dimensional culture, the testing of patient tumor sensitivity, the evaluation of treatment option for individual patients with solid tumor types and a high correlation to clinical drug sensitivity (Flowers J L et al., Cancer Chemother. Pharmacol. 2003 September 52 (3): 253-261). The assays were performed by Anti-cancer Inc., (San Diego, Calif.). An average of twenty samples was tested for each tumor type.

[2] = test system: normal human breast epithelial cells; assay: DNA damage markers in normal human breast epithelial cells; type: cell-based; settings: SP2007 10 μM or 20 μM
Source text: The primary breast epithelial cells obtained from patients undergoing reconstructive plastic surgery.

lung cancer tumors = assay: Lung tumor model in mice; type: in vivo, mouse
Twist = Twist expression in U2OS and EJ cells; type: cell-based, human; settings: 10 μM, 6 and 12 hours
Method: (§2) U2OS cells and EJ cells were exposed to piperlongumine (10 μM) and aliquots of the cells were taken at 6 and 12 hours and lysed to determine the level of Twist expression. […] HCT116 cells (p53-wt cells) were exposed to piperlongumine and aliquots of the cells were taken at 6 and 12 hours and lysed to determine the level of CDIP expression. […] U2OS cells (p53-wt cells) and EJ cells (non-functional p53) were exposed to various concentrations of piperlongumine (piper) and aliquots of the cells were lysed to determine the level of survival protein expression.

[3] = test system: EJ Human Bladder Carcinoma Cells; assay: Angiogenesis in EJ bladder carcinoma tumor bearing nude mice; type: in vivo, mouse; settings: 1.5 mg/kg i.p. every two days for 2.5 weeks
Method: EJ Human Bladder Carcinoma Cells (10^6 Cells) were Subcutaneously Transplanted into the back of the skin of immunodeficient nude mice (total 16 mice). After 2 weeks (tumor sizes of approximately 8-10 mm), piperlongumine (SP2007; 1.5 mg/kg) or vehicle (10% DMSO) was injected into tumor bearing mice by i.p. every two days for 2.5 weeks. The effect of piperlongumine was evaluated by opening the tumor site.

miRNA-10b = assay: miRNA microarray analysis in U2OS and EJ cells; type: cell-based, human; set-up: dose or concentration left out as unconfirmed; settings: 0, 6 and 24 hrs
Method: U2OS cells and EJ cells were treated with piperlongumine ([…]) and total RNA was extracted after 0, 6 and 24 hrs using miRNeasy Mini Kit (Qiagen, Germantown, Md.) according to the manufacturer's instructions. The miRNA microarray analysis was done by LC Sciences (Houston, Tex.). Total RNA (10 μg) was size fractionated (<200 nucleotides) by using a mirVana kit (Ambion, Austin, Tex.) and labeled with Cy3 or Cy5 fluorescent dyes. Dye switching was done to eliminate the dye bias. Pairs of labeled samples were hybridized to dual-channel microarrays. Microarray assays were done on a μParaFlo microfluidics chip with each of the detection probes containing a nucleotide sequence of coding segment complementary to a specific miRNA sequence and a long non-nucleotide molecule spacer that extended the detection probe away from the substrate. miRNA detection signal threshold was defined as twice the maximum background signal. The maximum signal level of background probes was 180. Normalization was done using a cyclic LOWESS (locally weighted regression) method to remove the system-related variations. Data adjustments included data filtering, log2 transformation, and gene centering and normalization (Analysis performed at LCScience). The t-test analysis was conducted between treated and non-treated and U2OS and EJ samples, and miRNA with P values<0.05 were selected for cluster analysis. […]

[4] = test system: patient-derived colon cancer tumor samples; assay: Histoculture Drug Response Assay (HDRA), colon; type: cell-based, human
Source text: as §1

[5] = test system: immortalized human breast epithelial cells; assay: DNA damage markers in immortalized human breast epithelial cells; type: cell-based; settings: taxol 10 nM
Source text: The conditions and time of exposure are indicated in the legend of the figure.

CDIP = CDIP expression in HCT116 cells; type: cell-based, human; settings: 5 μM and 10 μM
Method: as §2

[6] = test system: Twist, N-cadherin and p120 catenin; assay: Western blot of Twist, N-cadherin and p120 catenin in EJ and U2OS cells; type: cell-based, human; settings: 10 μM and 20 μM, 20 hours
Method: A scheme for piperlongumine (SP2007)-mediated repression of Twist expression and its downstream targets that are involved in tumor invasion/metastasis is presented in FIG. 39A. […] U2OS and EJ cells were treated with SP2007 at two concentrations (10 μM and 20 μM) as well as with DMSO as a solvent control. After 20 hours, cell lysates were extracted and western blotting was performed against Twist, N-cadherin and p120 catenin (Zymed and Sigma Aldrich). […] Female MMTV-PyVT mice at 8-9 weeks age were chosen for the studies. When tumor sizes grew to ˜5-6 mm in diameter, SP2007 or DMSO was administered intraperitoneally (I.P., total 2.4 mg/kg of SP2007) daily for two weeks. After two weeks treatment, mice were sacrificed and mammary tumors excised and processed for histological examination.

COc1cc(/C=C/C(=O)N2CCC=CC2=O)cc(OC)c1OC [piperlongumine, N-(3,4,5,-trimethoxycinnamoyl)-Δ^3-piperidine-2-one]
Puma expression (p53; human cancer cells): significantly induced | p53 expression (Western blot) (p53; relatively low concentrations, U2OS and HCT116 human cancer cells): significantly induced | dose to avoid toxicity (Toxicity limit in mice): less than 2.5 mg/kg | growth of patient-derived tumor samples [1]: inhibits growth | phosphorylated gamma-H2AX, p53 and p21 [2]: does not affect | killing of lung cancer tumors (lung cancer tumors): effective killing | Twist expression (Twist): inhibits the expression of Twist | blood-vessel formation at the tumor sites [3]: did not show considerable blood-vessel formation | expression of angiogenic marker VEGF (immunohistochemistry) ([3]; compared to vehicle): significantly reduced | miRNA-10b (miRNA-10b): changes the induction of miRNA-10b | growth of patient-derived tumor samples [4]: inhibits growth | phosphorylated gamma-H2AX and p53 [5]: does not result in the induction | CDIP expression (CDIP): induces the expression of CDIP | expression of Twist, N-cadherin and p120 catenin [6]: inhibits expression
